Test results reported in PubChem BioAssay (NCI).
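Grown in 96-well plates, cells were treated for 48 hours with each compound at five concentrations. Insufficient inhibition: endpoint recorded as highest concentration tested. Abbreviation: GI50, concentration required for 50% inhibition of growth. The concentration for full growth arrest is given as TGI.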

Assays:
Assay in all cases: NCI-60 cell line screen, 48 h
[1] = system: BT-549 breast
[2] = system: UO-31 renal
[3] = system: KM12 colon
[4] = system: LOX IMVI melanoma
[5] = system: MDA-N
[6] = system: MOLT-4 leukemia
[7] = system: OVCAR-4 ovarian
[8] = system: OVCAR-8 ovarian
[9] = system: SK-OV-3 ovarian
[10] = system: U251 CNS

Structure (SMILES)	GI50 [1] [µM]	TGI [1] [µM]	GI50 [2] [µM]	TGI [2] [µM]	TGI [3] [µM]	TGI [4] [µM]	TGI [5] [µM]	TGI [6] [µM]	TGI [7] [µM]	TGI [8] [µM]	TGI [9] [µM]	TGI [10] [µM]	GI50 [3] [µM]	GI50 [4] [µM]	GI50 [6] [µM]	GI50 [7] [µM]	GI50 [8] [µM]	GI50 [9] [µM]	GI50 [10] [µM]
NCCCNc1nc2ccccc2c2c(=O)c3cc(C(F)(F)F)ccc3sc12	7.3	27.1	1.4	2.74															
CCOC(=O)CCC(NC(=O)c1ccc(Oc2nc3ccc(C(F)(F)F)cc3nc2-c2ccccc2)cc1)C(=O)OCC (stereo not given)				> 100	> 100	> 100	> 100	> 100	> 83	> 57.7	37.9	> 100							
CCNC1(c2cccc(C)c2)OC(C)(C)c2cccc3cccc1c23 (stereo not given)		37.2		29.8	69.8	32.6	36.8		29.9	36.5	37.9	31.4							
CCCN(CCCC(NC(C)=O)C(=O)NCc1ccccc1)C(=O)NC (stereo not given)				> 100	> 100	> 100		> 100	> 100	> 100	> 100	> 100							
O=[N+]([O-])c1cccc2nc3ccccc3c(NCCc3cccc[n+]3[O-])c12		0.0917			0.552	0.121	0.0464		0.212	0.302	0.979	0.145							
Cn1c(=O)cc(NCc2ccc(Cl)cc2)[nH]c1=O		> 100		> 100	> 100	> 100	> 100		> 100	> 100	> 100	> 100							
CC(OC(=O)NCn1cc(-c2ccccc2)nn1)c1ccccc1 (stereo not given)		> 100			> 100	> 100		47.4		> 100		> 100							
COc1nc(SC)nc2c1cnn2C1OC(C(O)CO)C(OC)C1O (stereo not given)				> 100	> 100	> 100		69	> 100	> 100	> 100	> 100							
Nc1c(-c2nc3ccccc3s2)c2ccc([N+](=O)[O-])cc2c(=O)n1-c1cccc(C(=O)O)c1		64.3		71.8	> 100	> 100	> 100		> 100	68.6		56							
CC(=O)O/N=C/c1ncccc1OC(C)=O				> 100	> 100	> 100		> 100	> 100	> 100	> 100	> 100							
CCOC(=O)c1c(C)c2c(n1C)CCc1cn[nH]c1-2				> 100	> 100	> 100		> 100	> 100	> 100	> 100	> 100							
Clc1ccc(SCCSCCCCCCCCCCSCCSc2ccc(Cl)cc2)cc1				> 100	> 100	> 100		> 100		> 100	> 100	> 100							
NC(=O)N1N=C2c3ccccc3CC[C@@H]2C1c1ccccc1 (stereo not given in full)				> 100	> 100	> 100		> 100		> 100	> 100	> 100							
O=C1CN2Cc3cc(N4CCOCC4)ccc3N=C2N1		> 100		> 100	> 100	> 100		> 100	> 100	> 100	> 100	> 100							
CCCn1c(SCC)c2ccccc2c1-c1nc(F)nc(F)n1				> 100	> 100	> 100		> 100	> 100			> 100							
COC(=O)C(CCCC1(c2ccccc2)OCCO1)C(C)=O (stereo not given)				> 100	> 100	> 100		> 100	> 100	> 100	> 100	> 100							
N#CCCN(CCC#N)c1ccc(C(N=Nc2ccccc2)=Nc2ccccc2)cc1		> 100		> 100	> 100		> 100	> 100	> 100	> 100	> 100	> 100							
COc1ccc2nc3ccc(OC)cc3c(S(=O)(=O)Cc3ccc([N+](=O)[O-])cc3)c2c1				> 100	> 100	> 100	> 100	> 100	> 100	> 100	> 100	> 100							

Structure (SMILES)	GI50 [1] [µM]	TGI [1] [µM]	GI50 [2] [µM]	TGI [2] [µM]	TGI [3] [µM]	TGI [4] [µM]	TGI [5] [µM]	TGI [6] [µM]	TGI [7] [µM]	TGI [8] [µM]	TGI [9] [µM]	TGI [10] [µM]	GI50 [3] [µM]	GI50 [4] [µM]	GI50 [6] [µM]	GI50 [7] [µM]	GI50 [8] [µM]	GI50 [9] [µM]	GI50 [10] [µM]
O=c1[nH]c(Nc2cccc(C(F)(F)F)c2)nc2nc[nH]c12					> 100	> 100	> 100	> 100	> 100	> 100	> 100	> 100							
C[C@H](Nc1c(O)c2c(c(O)c1Cl)C(=O)C=CC2=O)C(=O)Nc1ccc([N+](=O)[O-])cc1		> 10			3.66		6.67	> 10	3.14	5.54	> 10	6.02							
COc1cc2c(c(C)c1O)[C@H]1COc3ccccc3[C@H]1O2				35.5	> 100	14.7		42.7	89.3	67.3	> 100								
COCC1CCCN1c1ccc(/C=C(/C#N)C(N)=S)cc1 (stereo not given)	> 100	> 100	> 100	> 100	> 100	> 100		> 100	> 100	> 100	> 100	> 100	39.5	> 100	> 100	> 100	> 100	> 100	> 100
COC(=O)C1=C(C(=O)OC)C2(OC(C)=O)c3ccccc3-c3ccccc3C12 (stereo not given)				8.97	26.8	9.51			6.48	12.2	29.1	20.1							
CSC(C1c2ccccc2N(C)C2=NC(=O)N(C)C(=O)C21Cl)S(=O)(=O)c1ccc(C)cc1 (stereo not given)				> 100	> 100	> 100		40.8	> 100	46.3	> 100	> 100							
CC1(C)CC[C@]2(C)CC=C3[C@]4(C)CC[C@H]5C(C)(C)C(=O)CC[C@]5(C)[C@H]4CC[C@@]3(C)[C@H]2C1				> 100	> 100	> 100	> 100	> 100	> 100	> 100	> 100	> 100							
COc1cc(-c2oc3c(OC)c(O)c(OC)c(O)c3c(=O)c2OC)cc(O)c1OC				> 100	> 100	> 100	36.2	> 100	> 100	> 100	49.3	> 100							
COC(OC)c1cccc2c1C(=O)CCC1(O)c3ccccc3C1C2 (stereo not given)				> 100	> 100	> 100		> 100	> 100	> 100	> 100								
CC1(C)N=C(C(N)=O)c2ncn(-c3ccccc3)c2N1					> 100	> 100	> 100		> 100	> 100	> 100	> 100							
O=C1C(/C=C/c2ccc(Cl)cc2)=NNC2N1N=C1NC(=O)C3(NN12)c1ccccc1-c1ccccc13 (stereo not given)		> 100		> 100		> 100			> 100	> 100	> 100	> 100							
COc1cc(C2C(Cl)C(=O)N2NC(=O)c2ccccc2O)ccc1O (stereo not given)				> 100	> 100	> 100		> 100		> 100	> 100	> 100							
COC1=CC(=O)[C@H]2[C@H](C)C(c3ccccc3)[C@@]2(C)C1=O (stereo not given in full)				> 100	> 100	> 100		> 100	> 100	> 100	> 100	> 100							
O=C(/C=C/c1ccc(Cl)cc1)Oc1ccc(/C=C2\CCCCC2=O)cc1				> 100	> 100	> 100	> 100	73.9	> 100	> 100		> 100							
O=C1CCC[C@]2(CCC[C@@H](O)C2)N1		> 100			> 100	> 100	> 100		> 100	> 100	> 100								
COc1ccc(N2C(=O)C3ON(C(C(N)=O)c4ccccc4)C(c4ccc(-c5ccccc5)cc4)C3C2=O)cc1 (stereo not given)		> 50		> 50	> 50	> 50		> 50	> 50	> 50	> 50	> 50							
Nc1nc(SCCNC(=O)CCc2ccc(O)cc2)nc2c1ncn2C1OC(CO)C(O)C1O (stereo not given)				> 203	> 203	> 203		> 203	> 203	> 203	> 203	> 203							
COc1cc(C2c3cc4c(cc3OC(Nc3ccc(C(=O)O)cc3)C2C)OCO4)cc(OC)c1OC (stereo not given)		> 26.8		28	1.66	> 100		25.8	> 52.9	> 100		30							
